Measurements from ChEMBL document CHEMBL5331067, “Disubstituted pyrimidine-5-carboxamide derivatives as novel HIV-1 NNRTIs: Crystallographic overlay-based molecular design, synthesis, and biological evaluation” (Eur J Med Chem, 2023).

How the values were obtained:
[1] = system: Human immunodeficiency virus 1; test: Antiviral activity against HIV-1 IIIB infected in human MT4 cells assessed as reduction in virus induced cytopathic effect incubated for 5 days by MTT assay; format: functional, organism-based; settings: Human immunodeficiency virus 1, IIIB, MT4, 120 h
[2] = system: Human immunodeficiency virus 1; test: Antiviral activity against HIV-1 RES056 infected in human MT4 cells assessed as reduction in virus induced cytopathic effect incubated for 5 days by MTT assay; format: functional, organism-based; settings: Human immunodeficiency virus 1, RES056, MT4, 120 h
[3] = Cytotoxicity against human MT4 cells assessed as cell growth inhibition incubated for 5 days by MTT assay; format: toxicity, cell-based; settings: time 5 day
[4] = Selectivity index, ratio of CC50 for cytotoxicity against human MT4 cells assessed as reduction in cell viability to EC50 for antiviral activity against HIV-1 IIIB infected in human MT4 cells assessed as reduction in virus induced cytopathic effect; format: toxicity, cell-based; settings: read-out: Ratio CC50/EC50
[5] = system: Human immunodeficiency virus 1; test: Antiviral activity against NNRTI-resistant HIV-1 harboring L100I mutant infected in human MT4 cells assessed as virus-induced cytopathicity incubated for 5 days by MTT assay; format: functional, organism-based; settings: Human immunodeficiency virus 1, MT4, 120 h
[6] = system: Human immunodeficiency virus 1; test: Antiviral activity against NNRTI-resistant HIV-1 harboring K103N mutant infected in human MT4 cells assessed as virus-induced cytopathicity incubated for 5 days by MTT assay; format: functional, organism-based; settings: Human immunodeficiency virus 1, MT4, 120 h
[7] = system: Human immunodeficiency virus 1; test: Antiviral activity against NNRTI-resistant HIV-1 harboring Y181C mutant infected in human MT4 cells assessed as virus-induced cytopathicity incubated for 5 days by MTT assay; format: functional, organism-based; settings: Human immunodeficiency virus 1, MT4, 120 h
[8] = system: Human immunodeficiency virus 1; test: Antiviral activity against NNRTI-resistant HIV-1 harboring Y188L mutant infected in human MT4 cells assessed as virus-induced cytopathicity incubated for 5 days by MTT assay; format: functional, organism-based; settings: Human immunodeficiency virus 1, MT4, 120 h
[9] = system: Human immunodeficiency virus 1; test: Antiviral activity against NNRTI-resistant HIV-1 harboring E138K mutant infected in human MT4 cells assessed as virus-induced cytopathicity incubated for 5 days by MTT assay; format: functional, organism-based; settings: Human immunodeficiency virus 1, MT4, 120 h
[10] = system: Human immunodeficiency virus 1; test: Antiviral activity against NNRTI-resistant HIV-1 harboring F227L/V106A double mutant infected in human MT4 cells assessed as virus-induced cytopathicity incubated for 5 days by MTT assay; format: functional, organism-based; settings: Human immunodeficiency virus 1, MT4, 120 h
[11] = Selectivity index, ratio of CC50 for cytotoxicity against human MT4 cells assessed as reduction in cell viability to EC50 for antiviral activity against NNRTI-resistant HIV-1 harboring L100I mutant infected in human MT4 cells; format: toxicity, cell-based; settings: read-out: Ratio CC50/EC50
[12] = Selectivity index, ratio of CC50 for cytotoxicity against human MT4 cells assessed as reduction in cell viability to EC50 for antiviral activity against NNRTI-resistant HIV-1 harboring K103N mutant infected in human MT4 cells; format: toxicity, cell-based; settings: read-out: Ratio CC50/EC50
[13] = Selectivity index, ratio of CC50 for cytotoxicity against human MT4 cells assessed as reduction in cell viability to EC50 for antiviral activity against NNRTI-resistant HIV-1 harboring Y181C mutant infected in human MT4 cells; format: toxicity, cell-based; settings: read-out: Ratio CC50/EC50
[14] = Selectivity index, ratio of CC50 for cytotoxicity against human MT4 cells assessed as reduction in cell viability to EC50 for antiviral activity against NNRTI-resistant HIV-1 harboring Y188L mutant infected in human MT4 cells; format: toxicity, cell-based; settings: read-out: Ratio CC50/EC50
[15] = Selectivity index, ratio of CC50 for cytotoxicity against human MT4 cells assessed as reduction in cell viability to EC50 for antiviral activity against NNRTI-resistant HIV-1 harboring E138K mutant infected in human MT4 cells; format: toxicity, cell-based; settings: read-out: Ratio CC50/EC50
[16] = Selectivity index, ratio of CC50 for cytotoxicity against human MT4 cells assessed as reduction in cell viability to EC50 for antiviral activity against NNRTI-resistant HIV-1 harboring F227L/V106A double mutant infected in human MT4 cells; format: toxicity, cell-based; settings: read-out: Ratio CC50/EC50
[17] = Selectivity index, ratio of CC50 for cytotoxicity against human MT4 cells assessed as reduction in cell viability to EC50 for antiviral activity against HIV-1 RES056 infected in human MT4 cells assessed as reduction in virus induced cytopathic effect; format: toxicity, cell-based; settings: read-out: Ratio CC50/EC50
[18] = (§1) Fold resistance, ratio of EC50 for antiviral activity against NNRTI-resistant HIV-1 harboring L100I mutant infected in human MT4 cells assessed as virus-induced cytopathicity to EC50 for antiviral activity against HIV-1 IIIB infected in human MT4 cells assessed as reduction in virus induced cytopathic effect; format: functional
[19] = as §1, with “K103N” for “L100I”; format: functional
[20] = as §1, with “Y181C” for “L100I”; format: functional
[21] = as §1, with “Y188L” for “L100I”; format: functional
[22] = as §1, with “E138K” for “L100I”; format: functional
[23] = as §1, with “F227L/V106A double” for “L100I”; format: functional
[24] = as §1, with “F227L/V106A double” for “L100I”, “RES056” for “IIIB”; format: functional
[25] = molecular target: Human immunodeficiency virus type 1 reverse transcriptase (Human immunodeficiency virus 1, UniProt Q72547); test: Inhibition of wild type HIV-1 reverse transcriptase assessed as reduction of biotin-dUTP incorporation into […] using ABTS as substrate incubated for 1 hrs by ELISA analysis

Structure (SMILES) | EC50 [1] [nM] | EC50 [2] [µM] | CC50 at 120 h [3] [µM] | selectivity ratio [4] | EC50 [5] [nM] | EC50 [6] [nM] | EC50 [7] [nM] | EC50 [8] [nM] | EC50 [9] [nM] | EC50 [10] [nM] | selectivity ratio [11] | selectivity ratio [12] | selectivity ratio [13] | selectivity ratio [14] | selectivity ratio [15] | selectivity ratio [16] | selectivity ratio [17] | Ratio EC50 [18] | Ratio EC50 [19] | Ratio EC50 [20] | also measured
Cc1cc(C#N)cc(C)c1Oc1nc(NC2CCN(Cc3ccc(S(N)(=O)=O)cc3)CC2)ncc1C(N)=O | 46 | 6.12 | 198 | 4300 | 209 | 62 | 295 | 234 | 291 | 439 | 946 | 3180 | 671 | 847 | 680 | 451 | 32 | 4.5 | 1.3 | 6.4 | Ratio EC50 [21]: 5.1; Ratio EC50 [22]: 6.3; Ratio EC50 [23]: 9.5; Ratio EC50 [24]: 132.9; IC50 [25]: 163 nM
Cc1cc(C#N)cc(C)c1Oc1nc(NC2CCN(c3ccc(NS(=O)(=O)N(C)C)cc3)CC2)ncc1C(N)=O | 7 | 15.6 | 209 | 31700 | 139 | 11 | 54 | 33 | 26 | 34 | 1500 | 18700 | 3910 | 6350 | 8010 | 6160 | 13 | 21.1 | 1.7 | 8.1 | Ratio EC50 [21]: 5; Ratio EC50 [22]: 3.9; Ratio EC50 [23]: 5.1; Ratio EC50 [24]: 2359.1; IC50 [25]: 52 nM
